From patent publication US20180042227A1, “SYNERGISTIC ANTIMICROBIAL COMPOSITION” (Dow Global Technologies LLC, priority 2015, published 2018)

Tests used:
Type in all cases: cell-based
[1] = system: Pseudomonas aeruginosa DSM # 939; assay: Minimum Inhibitory Concentration (MIC) test and synergy index, Pseudomonas aeruginosa; conditions: alone or in the mixture, TSB pH 7.3, 30° C. for 2 days
Procedure: (§1) The synergism of the biocides combination of the present invention was determined using the method described by Kull, F. C., et. al in Applied Microbiology 9:538-541 (1961). […] The Minimum Inhibitory Test (MIC) is designed to evaluate the lowest concentration of a biocide, biocide blend or biocide combination to prevent bacteria, yeast, or fungi from growing in a defined broth. After incubation, the samples are rated based on visually detectable turbidity. This test was carried out with a dilution factor of 1.5 for the biocides. • 1. Test samples were prepared in equal volumes in transparent containers. The biocide dilutions were done in tryptic soy broth (TSB) at pH of 7.3 for the bacteria and in malt extract broth (MEB) at pH 5.4 for the fungi strain. • 16 samples per biocide product and species to be tested were prepared in duplicates by serial dilution with a dilution factor of 1.5. • Per strain of micro-organism two samples not containing any biocide was added as a control. • 2. […] After incubation for 1 day at 30° C. the strains were harvested with buffer pH 7.3. • The concentration of cells was assessed by using a standard viable count technique. • For the inoculum, dilutions were made in buffer pH 7.3. • Yeast culture: [table] • 4. Reading was done visually by a growth/no growth rating. […]

[2] = system: Staphylococcus Aureus DSM # 799; assay: Minimum Inhibitory Concentration (MIC) test and synergy index, Staphylococcus aureus; conditions: alone or in the mixture, TSB pH 7.3, 30° C. for 2 days
Procedure: as §1

[3] = system: Candida Albicans DSM # 1386; assay: Minimum Inhibitory Concentration (MIC) test and synergy index, Candida albicans; conditions: alone or in the mixture, MEB pH 5.4, 28° C. for 2 days
Procedure: The synergism of the biocides combination of the present invention was determined using the method described by Kull, F. C., et. al in Applied Microbiology 9:538-541 (1961). […] The Minimum Inhibitory Test (MIC) is designed to evaluate the lowest concentration of a biocide, biocide blend or biocide combination to prevent bacteria, yeast, or fungi from growing in a defined broth. After incubation, the samples are rated based on visually detectable turbidity. This test was carried out with a dilution factor of 1.5 for the biocides. • 1. Test samples were prepared in equal volumes in transparent containers. The biocide dilutions were done in tryptic soy broth (TSB) at pH of 7.3 for the bacteria and in malt extract broth (MEB) at pH 5.4 for the fungi strain. • 16 samples per biocide product and species to be tested were prepared in duplicates by serial dilution with a dilution factor of 1.5. • Per strain of micro-organism two samples not containing any biocide was added as a control. • 2. […] Reading was done visually by a growth/no growth rating. […]

Row | Structure (SMILES) | Minimum Concentration (active ppm) to Inhibit Growth, Diamine ([1]; Diamine concentration) | Minimum Concentration (active ppm) to Inhibit Growth, Diamine ([2]; Diamine concentration) | Minimum Concentration (active ppm) to Inhibit Growth, Diamine ([3]; Diamine concentration) | Minimum Concentration (active ppm) to Inhibit Growth, DTBMA ([1]; DTBMA concentration) | Minimum Concentration (active ppm) to Inhibit Growth, DTBMA ([2]; DTBMA concentration) | Minimum Concentration (active ppm) to Inhibit Growth, DTBMA ([3]; DTBMA concentration)
1 | CCCCCCCCCCCCN(CCCN)CCCN [Diamine alone, N-(3-Aminopropyl)-N-dodecylpropane-1,3-diamine] | 148 active ppm | 44 active ppm | 148 active ppm | – | – | –
2 | CNC(=O)c1ccccc1SSc1ccccc1C(=O)NC [DTBMA alone, dithio-2,2′-bis-benzmethylamide] | – | – | – | 222 active ppm | 20 active ppm | 148 active ppm
